This experiment relates to MDA-MB-468 multi-cell spheroids, viability. Put plainly: Anticancer human tumor MDA-MB-468 cell line growth inhibition [IpAb].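 For all read-outs here: spheroids exposed to agents for seven days.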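 For viability, T/C: 100% = DMSO vehicle control viability.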 To be noted: for viability, T/C: stronger effect = lower value. The essentials: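 Combinations with ipatasertib or abemaciclib were tested on tumour spheroids holding HUVEC (25%) and MSC (15%) alongside 60% malignant cells. Top concentration was at or near clinical Cmax (10 microM if undefined), descending in half-log steps.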

The mark [1] stands for this setting: curve of first compound, second compound 0.1 µM.
[2] abbreviates: curve of first compound, second compound 0.316 µM.
Setting [3] is: curve of first compound, second compound 1 µM.
The mark [4] stands for this setting: curve of first compound, second compound 3.16 µM.
The mark [5] stands for this setting: curve of first compound, second compound 10 µM.
[6] abbreviates: second compound 0.1 µM, first compound 0.0316 µM.
Setting [7] is: second compound 0.1 µM, first compound 0.1 µM.
[8] abbreviates: second compound 0.316 µM, first compound 0.0316 µM.
Where [9] appears, read: second compound 0.316 µM, first compound 0.1 µM.
Setting [10] is: second compound 1 µM, first compound 0.0316 µM.
[11] abbreviates: second compound 1 µM, first compound 0.1 µM.
The mark [12] stands for this setting: second compound 3.16 µM, first compound 0.0316 µM.
The mark [13] stands for this setting: second compound 3.16 µM, first compound 0.1 µM.
Where [14] appears, read: second compound 10 µM, first compound 0.0316 µM.
Setting [15] is: second compound 10 µM, first compound 0.1 µM.

Values joined by “and” are separate entries in the source; they are usually repeats but may differ in a detail not shown here. Equal values may be shown once. Where only a bound is given, the exact number is not on record here.

For orientation: IC50 means the concentration that inhibits the measured activity by half. As usually defined, the viability, T/C is the ratio of treated to control.

Consider `Cn1cnc2c(F)c(Nc3ccc(Br)cc3Cl)c(C(=O)NOCCO)cc21` + CCN1CCN(Cc2ccc(Nc3ncc(F)c(-c4cc(F)c5nc(C)n(C(C)C)c5c4)n3)nc2)CC1, for which the IC50 by setting is: (curve of first compound, second compound 0.01 µM) 1130 nM; (curve of first compound, second compound 0.0316 µM) 920 nM; under setting [1], 798 nM; under setting [2], 601 nM; under setting [3], 152 nM. The viability, T/C runs as follows: (second compound 0.01 µM, first compound 0.00949 µM) 102%; (second compound 0.01 µM, first compound 0.03 µM) 79.5%; (second compound 0.01 µM, first compound 0.0949 µM) 77.7%; (second compound 0.01 µM, first compound 0.3 µM) 73.3%; (second compound 0.01 µM, first compound 0.949 µM) 55.1%; (second compound 0.01 µM, first compound 3 µM) 31.5%. Further, the viability, T/C (second compound 0.0316 µM, first compound 0.00949 µM) was 83.7%; the viability, T/C (second compound 0.0316 µM, first compound 0.03 µM) is 76.3%; the viability, T/C (second compound 0.0316 µM, first compound 0.0949 µM) was 73.6%; the viability, T/C (second compound 0.0316 µM, first compound 0.3 µM) is 60.8%; the viability, T/C (second compound 0.0316 µM, first compound 0.949 µM) was 52%; the viability, T/C (second compound 0.0316 µM, first compound 3 µM) is 29.7%. The viability, T/C is 95.8% (second compound 0.1 µM, first compound 0.00949 µM); 73.6% (second compound 0.1 µM, first compound 0.03 µM); 81.3% (second compound 0.1 µM, first compound 0.0949 µM); 58.8% (second compound 0.1 µM, first compound 0.3 µM); 52.4% (second compound 0.1 µM, first compound 0.949 µM); 28.4% (second compound 0.1 µM, first compound 3 µM). Moreover, the viability, T/C is, setting by setting: (second compound 0.316 µM, first compound 0.00949 µM) 108%; (second compound 0.316 µM, first compound 0.03 µM) 89.8%; (second compound 0.316 µM, first compound 0.0949 µM) 75.5%; (second compound 0.316 µM, first compound 0.3 µM) 63.3%; (second compound 0.316 µM, first compound 0.949 µM) 51.1%; (second compound 0.316 µM, first compound 3 µM) 16.8%. The viability, T/C is 92.7% (second compound 1 µM, first compound 0.00949 µM); 69% (second compound 1 µM, first compound 0.03 µM); 58.9% (second compound 1 µM, first compound 0.0949 µM); 43.5% (second compound 1 µM, first compound 0.3 µM); 18.8% (second compound 1 µM, first compound 0.949 µM); 3.98% (second compound 1 µM, first compound 3 µM).
`CCN1CCN(Cc2ccc(Nc3ncc(F)c(-c4cc(F)c5nc(C)n(C(C)C)c5c4)n3)nc2)CC1`: the viability, T/C (compound 0.1 µM) was 102% [middle of 13 runs]. Further, the IC50 (compound alone, run of 05/18/2021) was over 1000 nM.
Take `CC(C)n1nc(-c2ccc3oc(N)nc3c2)c2c(N)ncnc21`: the viability, T/C reads like this: (compound 0.000316 µM) 99% and 104%; (compound 0.001 µM) 84.2% and 89.2%; (compound 0.00316 µM) 74% and 80.1%; (compound 0.01 µM) 53.6% and 57.9%; (compound 0.0316 µM) 23.8% and 23.2%; (compound 0.1 µM) 9.32% and 10.4%. Moreover, under “curve of compound”, the IC50 was 10.4 nM and 12 nM.
Turning to `Cn1ncnc1[C@H]1c2n[nH]c(=O)c3cc(F)cc(c23)N[C@@H]1c1ccc(F)cc1` + CC(C)NCC(C(=O)N1CCN(c2ncnc3c2C(C)CC3O)CC1)c1ccc(Cl)cc1, the concentration for half-maximal inhibition (IC50) reads like this: under setting [1], over 100 nM; under setting [2], over 100 nM; under setting [3], 17.9 nM; under setting [4], under 0.316 nM; under setting [5], under 0.316 nM. Besides, the viability, T/C (second compound 0.1 µM, first compound 0.000316 µM) was 101%; the viability, T/C (second compound 0.1 µM, first compound 0.001 µM) is 102%; the viability, T/C (second compound 0.1 µM, first compound 0.00316 µM) was 86.9%; the viability, T/C (second compound 0.1 µM, first compound 0.01 µM) is 73.8%; the viability, T/C under setting [6] was 85.8%; the viability, T/C under setting [7] was 65.7%. Also, the viability, T/C (second compound 0.316 µM, first compound 0.000316 µM) was 62%; the viability, T/C (second compound 0.316 µM, first compound 0.001 µM) is 70.7%; the viability, T/C (second compound 0.316 µM, first compound 0.00316 µM) was 62.1%; the viability, T/C (second compound 0.316 µM, first compound 0.01 µM) was 60.2%; the viability, T/C under setting [8] was 55.5%; the viability, T/C under setting [9] is 57.7%. In addition, the viability, T/C was 60.8% (second compound 1 µM, first compound 0.000316 µM); 59.2% (second compound 1 µM, first compound 0.001 µM); 55.1% (second compound 1 µM, first compound 0.00316 µM); 54.2% (second compound 1 µM, first compound 0.01 µM); 46.2% under setting [10]; 41.8% under setting [11]. The viability, T/C by setting is: (second compound 3.16 µM, first compound 0.000316 µM) 38.9%; (second compound 3.16 µM, first compound 0.001 µM) 37.8%; (second compound 3.16 µM, first compound 0.00316 µM) 40%; (second compound 3.16 µM, first compound 0.01 µM) 34.9%; under setting [12], 34%; under setting [13], 26.6%. For the same compound, the viability, T/C reads like this: (second compound 10 µM, first compound 0.000316 µM) 19.3%; (second compound 10 µM, first compound 0.001 µM) 22.5%; (second compound 10 µM, first compound 0.00316 µM) 18.6%; (second compound 10 µM, first compound 0.01 µM) 18.8%; under setting [14], 16%; under setting [15], 15.6%.
In the case of `C=CCn1c(=O)c2cnc(Nc3ccc(N4CCN(C)CC4)cc3)nc2n1-c1cccc(C(C)(C)O)n1` + CC(C)NCC(C(=O)N1CCN(c2ncnc3c2C(C)CC3O)CC1)c1ccc(Cl)cc1, the IC50 under setting [1] was determined as 383 nM; the IC50 under setting [2] came to 212 nM; the half-inhibitory concentration (IC50) under setting [3] was found to be 60.2 nM; the IC50 under setting [4] was under 31.6 nM; the IC50 under setting [5] is under 31.6 nM. For the same compound, the viability, T/C runs as follows: under setting [6], 101%; under setting [7], 89.3%; (second compound 0.1 µM, first compound 0.316 µM) 59.5%; (second compound 0.1 µM, first compound 1 µM) 5.21%; (second compound 0.1 µM, first compound 3.16 µM) 3.03%; (second compound 0.1 µM, first compound 10 µM) 2.74%. Moreover, the viability, T/C is 78.6% under setting [8]; 63.7% under setting [9]; 42.6% (second compound 0.316 µM, first compound 0.316 µM); 2.96% (second compound 0.316 µM, first compound 1 µM); 3.13% (second compound 0.316 µM, first compound 3.16 µM); 2.21% (second compound 0.316 µM, first compound 10 µM). The viability, T/C was 59.4% under setting [10]; 40.8% under setting [11]; 25.7% (second compound 1 µM, first compound 0.316 µM); 2.27% (second compound 1 µM, first compound 1 µM); 2.93% (second compound 1 µM, first compound 3.16 µM); 1.68% (second compound 1 µM, first compound 10 µM). Moreover, the viability, T/C under setting [12] is 32.1%; the viability, T/C under setting [13] was 27.2%; the viability, T/C (second compound 3.16 µM, first compound 0.316 µM) is 15.7%; the viability, T/C (second compound 3.16 µM, first compound 1 µM) was 1.82%; the viability, T/C (second compound 3.16 µM, first compound 3.16 µM) was 3.18%; the viability, T/C (second compound 3.16 µM, first compound 10 µM) is 1.47%. Also, the viability, T/C under setting [14] is 17.8%; the viability, T/C under setting [15] was 14%; the viability, T/C (second compound 10 µM, first compound 0.316 µM) was 9.24%; the viability, T/C (second compound 10 µM, first compound 1 µM) is 1.81%; the viability, T/C (second compound 10 µM, first compound 3.16 µM) was 2.55%; the viability, T/C (second compound 10 µM, first compound 10 µM) was 1.3%.

Values taken from PubChem BioAssay AID2060326 (Molecular Pharmacology Branch, DTP, NCI, 2025).
